Tested on: Nrf2
Assay: Evaluation of Nrf2 activation ability (Nrf2d-LacZ / Keap1 HEK293 reporter, Beta-Glo luminescence)
Assay type: cell-based, human
How it was run: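 HEK293 cells stably expressing a human Nrf2 degron–LacZ fusion plus human Keap1 were exposed to compound for 3 h at 37° C. Reporter β-galactosidase was read by Beta-Glo luminescence after 1 h at RT. Activation is given as % of the signal with 100 nM CDDO-Im.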

[1] = rated A/B/C, Pharmacological Test Example 1
[2] = Pharmacological Test Example 1, rated A/B/C

Compound | EC50 [1] [µM] | EC50 [2] [µM]
[O-][s+]1nc(O)cc1-n1ncc2ccncc21 (stereo not drawn) [Example 231] | 5 to 10 | 
[O-][s+]1nc(O)cc1-n1ncc2cccnc21 (stereo not drawn) [Example 238] | 1 to 5 | 
CC(C)(C)OC(=O)N1CCc2cn(-c3cc(O)n[s+]3[O-])nc2CC1 (stereo not drawn) [Example 244] | 1 to 5 | 
CC(C)(C)OC(=O)N1Cc2cnn(-c3cc(O)n[s+]3[O-])c2C1 (stereo not drawn) [Example 245] | 1 to 5 | 
CC(C)(C)OC(=O)N1Cc2cn(-c3cc(O)n[s+]3[O-])nc2C1 (stereo not drawn) [Example 246] | 1 to 5 | 
CC(C)(C)OC(=O)N1CCc2c(cnn2-c2cc(O)n[s+]2[O-])C1 (stereo not drawn) [Example 247] | 1 to 5 | 
CC(C)(C)OC(=O)N1CCc2nn(-c3cc(O)n[s+]3[O-])cc2C1 (stereo not drawn) [Example 248] | 1 to 5 | 
CC(C)(C)OC(=O)N1CCCc2nn(-c3cc(O)n[s+]3[O-])cc2C1 (stereo not drawn) [Example 250] | 1 to 5 | 
CC(C)(C)OC(=O)N1CCc2c(c(I)nn2-c2cc(O)n[s+]2[O-])C1 (stereo not drawn) [Example 251] | 5 to 10 | 
[O-][s+]1nc(O)cc1-n1ncc2c1CCN(Cc1ccccc1)C2 (stereo not drawn) [Example 252] | 1 to 5 | 
[O-][s+]1nc(O)cc1-n1ncc2c1CN(Cc1cccc(Oc3ccccc3)c1)C2 (stereo not drawn) [Example 264] | 1 to 5 | 
[O-][s+]1nc(O)cc1-n1ncc2c1CN(Cc1ccc(C(F)(F)F)nc1)C2 (stereo not drawn) [Example 265] | 5 to 10 | 
[O-][s+]1nc(O)cc1-n1cc2c(n1)CN(Cc1cccc(Oc3ccccc3)c1)C2 (stereo not drawn) [Example 277] | 1 to 5 | 
[O-][s+]1nc(O)cc1-n1cccn1 (stereo not drawn) [Example 284] | 1 to 5 | 
[O-][s+]1nc(O)cc1-n1ccc(-c2cccc(Br)c2)n1 (stereo not drawn) [Example 286] | < 1 | 
[O-][s+]1nc(O)cc1-n1cc(I)cn1 (stereo not drawn) [Example 287] | 1 to 5 | 
[O-][s+]1nc(O)cc1-n1cc(C2=CCC(F)(F)CC2)cn1 (stereo not drawn) [Example 301] | < 1 | 
CC(C)(C)OC(=O)N1CC=C(c2cnn(-c3cc(O)n[s+]3[O-])c2)CC1 (stereo not drawn) [Example 304] | 1 to 5 | 
Cc1nn(-c2cc(O)n[s+]2[O-])c(C)c1I (stereo not drawn) [Example 305] | 1 to 5 | 
[O-][s+]1nc(O)cc1-n1cc(C2CCCCC2)cn1 (stereo not drawn) [Example 306] | 1 to 5 | 

Compound | EC50 [1] [µM] | EC50 [2] [µM]
[O-][s+]1nc(O)cc1-n1cc(CCc2ccccc2)cn1 (stereo not drawn) [Example 307] | < 1 | 
[O-][s+]1nc(O)cc1-n1cc(C2CCOCC2)cn1 (stereo not drawn) [Example 308] | 5 to 10 | 
Cc1nn(-c2cc(O)n[s+]2[O-])c(C)c1C1=CCC(F)(F)CC1 (stereo not drawn) [Example 312] | 5 to 10 | 
Cc1nn(-c2cc(O)n[s+]2[O-])c(C)c1C1=CCN(C(=O)OC(C)(C)C)CC1 (stereo not drawn) [Example 313] | 5 to 10 | 
Cc1nn(-c2cc(O)n[s+]2[O-])c(C)c1C1=CCCCC1 (stereo not drawn) [Example 315] |  | 1 to 5
Cc1nn(-c2cc(O)n[s+]2[O-])c(C)c1C1=CCC(C)(C)CC1 (stereo not drawn) [Example 316] |  | 1 to 5
CCOC(=O)C1CC=C(c2c(C)nn(-c3cc(O)n[s+]3[O-])c2C)CC1 (stereo not drawn) [Example 317] |  | 1 to 5
[O-][s+]1nc(O)cc1-n1cc(/C=C/c2ccccc2)cn1 (stereo not drawn) [Example 318] |  | 1 to 5
[O-][s+]1nc(O)cc1-n1cc(-c2cccc(-c3ccccc3)c2)cn1 (stereo not drawn) [Example 326] |  | < 1
[O-][s+]1nc(O)cc1-n1cc(-c2ccc(-c3ccccc3)cc2)cn1 (stereo not drawn) [Example 327] |  | 1 to 5
[O-][s+]1nc(O)cc1-n1cc(-c2ccccc2-c2ccccc2)cn1 (stereo not drawn) [Example 328] |  | 1 to 5
[O-][s+]1nc(O)cc1-n1cc(CCOc2ccccc2)cn1 (stereo not drawn) [Example 329] |  | 1 to 5
COC(=O)c1ccccc1-c1cnn(-c2cc(O)n[s+]2[O-])c1 (stereo not drawn) [Example 330] |  | 1 to 5
[O-][s+]1nc(O)cc1-n1cc(-c2ccc(Oc3ccccc3)cc2)cn1 (stereo not drawn) [Example 333] |  | < 1
[O-][s+]1nc(O)cc1-n1cc(-c2ccccc2Oc2ccccc2)cn1 (stereo not drawn) [Example 335] |  | 1 to 5
Cc1cccc(C)c1-c1cccc(COc2ccc(-c3cnn(-c4cc(O)n[s+]4[O-])c3)cc2)c1 (stereo not drawn) [Example 338] |  | 1 to 5
Cc1cc(OCCCS(C)(=O)=O)cc(C)c1-c1cccc(COc2ccc(-c3cnn(-c4cc(O)n[s+]4[O-])c3)cc2)c1 (stereo not drawn) [Example 339] |  | 1 to 5
[O-][s+]1nc(O)cc1-n1cc(-c2ccc3ccccc3c2)cn1 (stereo not drawn) [Example 340] |  | < 1
[O-][s+]1nc(O)cc1-n1cc(-c2cccc3ccccc23)cn1 (stereo not drawn) [Example 341] |  | 1 to 5

Second part, the compound after the results:

EC50 [1] [µM] | EC50 [2] [µM] | Compound
1 to 5 |  | CN1CCOc2cc(-c3ccc4c(c3)c(C#N)nn4-c3cc(O)n[s+]3[O-])cnc21 (stereo not drawn) [Example 221]
< 1 |  | CN1CCOc2cc(-c3ccc4c(cnn4-c4cc(O)n[s+]4[O-])c3)ncc21 (stereo not drawn) [Example 222]
1 to 5 |  | COc1nn(-c2cc(O)n[s+]2[O-])c2ccc(-c3cnc4c(c3)OCCN4C)cc12 (stereo not drawn) [Example 223]
< 1 |  | Cn1nc(-c2ccc3c(cnn3-c3cc(O)n[s+]3[O-])c2)c2ccccc21 (stereo not drawn) [Example 224]
< 1 |  | [O-][s+]1nc(O)cc1-n1ncc2cc(-c3cnn4cccnc34)ccc21 (stereo not drawn) [Example 225]
< 1 |  | Cn1ccc(-c2ccc3c(cnn3-c3cc(O)n[s+]3[O-])c2)n1 (stereo not drawn) [Example 226]
1 to 5 |  | [O-][s+]1nc(O)cc1-n1ncc2nc(Cl)ccc21 (stereo not drawn) [Example 227]
1 to 5 |  | Cc1cc2cnn(-c3cc(O)n[s+]3[O-])c2cn1 (stereo not drawn) [Example 229]
< 1 |  | [O-][s+]1nc(O)cc1-n1ncc2cc(-c3ccccc3)ncc21 (stereo not drawn) [Example 233]
1 to 5 |  | [O-][s+]1nc(O)cc1-n1ncc2cc(Br)ncc21 (stereo not drawn) [Example 234]
1 to 5 |  | [O-][s+]1nc(O)cc1-n1ncc2cc(-c3cccnc3)ncc21 (stereo not drawn) [Example 235]
1 to 5 |  | [O-][s+]1nc(O)cc1-n1ncc2cc(C3=CCOCC3)ncc21 (stereo not drawn) [Example 236]
< 1 |  | [O-][s+]1nc(O)cc1-n1ncc2cc(-c3ccc(C4CC4)nc3)ncc21 (stereo not drawn) [Example 237]
< 1 |  | [O-][s+]1nc(O)cc1-n1ncc2c3ccccc3ncc21 (stereo not drawn) [Example 239]
1 to 5 |  | [O-][s+]1nc(O)cc1-n1ncc2nc(-c3ccc(N4CCCC4)nc3)ccc21 (stereo not drawn) [Example 240]
1 to 5 |  | [O-][s+]1nc(O)cc1-n1ncc2nc(-c3ccc(N4CCCCC4)nc3)ccc21 (stereo not drawn) [Example 241]
< 1 |  | COc1cc2cnn(-c3cc(O)n[s+]3[O-])c2cn1 (stereo not drawn) [Example 242]
1 to 5 |  | COc1ccc(CN2CCc3c(cnn3-c3cc(O)n[s+]3[O-])C2)cn1 (stereo not drawn) [Example 261]
1 to 5 |  | [O-][s+]1nc(O)cc1-n1ncc2c1CN(Cc1cnc3ccccc3c1)C2 (stereo not drawn) [Example 263]
5 to 10 |  | COc1ccc(CN2Cc3cnn(-c4cc(O)n[s+]4[O-])c3C2)cn1 (stereo not drawn) [Example 266]
< 1 |  | [O-][s+]1nc(O)cc1-n1cc(-c2cccc(Br)c2)cn1 (stereo not drawn) [Example 290]
1 to 5 |  | Cc1cc(-c2ccccc2)nn1-c1cc(O)n[s+]1[O-] (stereo not drawn) [Example 310]
5 to 10 |  | Cc1nn(-c2cc(O)n[s+]2[O-])c(C)c1-c1ccccc1 (stereo not drawn) [Example 311]
 | 1 to 5 | [O-][s+]1nc(O)cc1-n1cc(-c2ccc(N3CCCCC3)nc2)cn1 (stereo not drawn) [Example 321]
 | 1 to 5 | [O-][s+]1nc(O)cc1-n1cc(-c2ccc(N3CCCC3)nc2)cn1 (stereo not drawn) [Example 322]
 | < 1 | [O-][s+]1nc(O)cc1-n1cc(-c2ccc(C3CC3)nc2)cn1 (stereo not drawn) [Example 323]
 | < 1 | COC(=O)C1(c2ccc(-c3cnn(-c4cc(O)n[s+]4[O-])c3)cc2)CC1 (stereo not drawn) [Example 324]
